Assay results as given in patent US8362081B2, “Methods for treating hemorrhagic conditions” (priority 2009, dated 2013).

How the values were obtained:
liver wound bleeding = experiment: Rabbit liver hemorrhage: bleeding time and extent; type: in vivo; conditions: 0.5 KU/kg injected via ear vein at wounding, vs physiological saline control
Procedure: Healthy rabbits having a weight of 2-2.5 kg were distributed randomly into four groups consisting of 6 rabbits per group. The rabbits in each group were fed only water for the twelve-hour period prior to operation. Each rabbit was anaesthetized by receiving an injection of sodium pentobarbital (30 mg/kg) in the abdominal cavity. An incision was made in the upper abdominal cavity of each animal and a piece of the liver was removed leaving a wound 2 cm in length, 1 cm in width and 0.5 cm in height.
At the time of wounding, the animals received by injection (2 ml/kg) via an ear vein one of following four compositions suspended in physiological saline: control, 0.5 KU/kg Reptilase, 25 mg/kg Sodium Dencichine, or 1 mg/kg solid dispersion composition of Dencichine prepared according to Example 1. Following the injection, the bleeding time and extent was recorded for each rabbit until the liver wound stopped bleeding.

acute gastric bleeding = experiment: Gastrorrhagia of rats: acute gastric bleeding time and extent; type: in vivo, Sprague-Dawley rat; conditions: rat gastric wound; 0.5 KU/kg via femoral vein 30 min before wounding; vs physiological saline control
Procedure: Healthy Sprague-Dawley rats having a weight of 180-220 g were distributed randomly into four groups consisting of 10 rats per group. The rats in each group were fed only water for the twelve-hour period prior to operation. Each rat was anaesthetized by receiving an injection of sodium pentobarbital (30 mg/kg) in the abdominal cavity. An incision was made in the upper abdominal cavity of each animal and the stomach exposed to air and minced along the greater curvature. The stomach was vacated for each animal and cleaned with sterile cotton swab.
The animals received by injection (1 ml/100 g) via a femoral vein one of following four compositions suspended in physiological saline: control, 0.5 KU/kg Reptilase, 25 mg/kg Sodium Dencichine, or 1 mg/kg solid dispersion composition of Dencichine prepared according to Example 1. Thirty minutes following the injection, one piece of the gastric body from each animal was excised using biopsy forceps to establish acute gastric bleeding. The bleeding time and extent was recorded for each rat until the wound stopped bleeding.

tail wound bleeding = experiment: Tail bleeding time of mouse; type: in vivo, ICR mouse; conditions: mouse tail cut; 0.5 KU/kg via tail vein 30 min before cut; vs physiological saline control
Procedure: Healthy male ICR mice having a weight of 18-22 g were distributed randomly into […] consisting of 10 mice per group. The animals received by injection (0.1 ml/10 g) via the tail vein one of following four compositions suspended in physiological saline: control, 0.5 KU/kg Reptilase, 25 mg/kg Sodium Dencichine, or 1 mg/kg solid dispersion composition of Dencichine prepared according to Example 1. Thirty minutes following injection the tail of each mouse was cut 0.5 cm from the tail tip. The cut tail wound bleeding of each mouse was monitored by scrubbing the tail tip with a filter paper at timed intervals (30 s, 60 s, and every 10 s thereafter) until blood could not be seen on the filter paper.

Reptilase: Haemostatic comparator injected at 0.5 KU/kg
significantly shortened: time and extent of the wound bleeding (liver wound bleeding) | time and extent of the wound bleeding (acute gastric bleeding) | time required to stop the tail wound bleeding (tail wound bleeding)
